From US20100022648A1, “ORAL USE OF AT LEAST ONE MONOUNSATURATED FATTY ACID FOR HAIR IMPROVEMENT” (L'OREAL, priority 2006, published 2010)
Marks after values point to notes of the source that are not given here.

Tested on: dermal fibroblasts
Assay: Formation of glycation products in cultures of dermal fibroblasts (Dot Blot immunodetection, densitometric analysis)
Assay type: cell-based
Conditions: culture of dermal fibroblasts; for % GP relative to the control: GP = glycation products, Aminoguanidine 1 mg/ml, Petroselinic acid 0.885 mM, control = 100, p < 0.01; for decrease in the formation of glycation products relative to the control: same concentrations as Table 1
Method: Dermal fibroblasts are cultured by the usual techniques that are well known by a person skilled in the art.
The glycation products are quantified by densitometric analysis of the spots in immunodetection of the glycation products (Dot Blot method), relative to a control (culture of fibroblasts without addition of the product).
Thus, aminoguanidine reduces the amount of glycation product relative to the control by 58%.
In another case, the culture of fibroblasts is supplemented with petroselinic acid.

| Compound | % GP relative to the control | % GP relative to the control (listed as aminoguanidine) [%] | decrease in the formation of glycation products relative to the control [%] | % GP relative to the control (listed as petroselinic acid) [%] |
| --- | --- | --- | --- | --- |
| N=C(N)NN [Aminoguanidine, aminoguanidine] | 42* % | 42 | 58 | – |
| CCCCCCCCCCC/C=C\CCCCC(=O)O [Petroselinic acid, petroselinic acid] | 73* % | – | 27 | 73 |
